From patent US6677277B1, “Substituted sulphonyl amino(thio)carbonyl compounds and their use as herbicides” (Bayer Aktiengesellschaft, priority 1996, dated 2004)

Key:
[1] = log P n-octanol/water by the HPLC method; type: physicochemical; details: at pH 2, eluent acetonitrile containing 1% of H3PO4
Amaranthus [2] = experiment: Post-emergence test/greenhouse; type: in vivo; details: for % damage, Amaranthus: post-emergence, after three weeks; for Amaranthus, % damage: Table B-4, post-emergence, rated after three weeks vs untreated control
Protocol: (§1) Post-emergence Test Solvent: 5 parts by weight of acetone Emulsifier: 1 part by weight of alkylaryl polyglycol ether To produce a suitable preparation of active compound, 1 part by weight of active compound is mixed with the stated amount of solvent, the stated amount of emulsifier is added and the concentrate is diluted with water to the desired concentration. Test plants which have a height of 5-15 cm are sprayed with the preparation of the active compound in such a way as to apply the particular amounts of active compound desired per unit area. The concentration of the spray liquor is chosen so that the particular amounts of active compound desired are applied in 1000 l of water/ha. After three weeks, the degree of damage to the plants is rated in % damage in comparison to the development of the untreated control. The figures denote: [table]

Matricaria [3] = experiment: Post-emergence test/greenhouse; type: in vivo; details: after three weeks
Protocol: as §1

Solanum [4] = experiment: Post-emergence test/greenhouse; type: in vivo; details: for % damage, Solanum: after three weeks; for Solanum, % damage: rated after three weeks vs untreated control
Protocol: as §1

Wheat [5] = experiment: Post-emergence test/greenhouse; type: in vivo; details: for % damage, Wheat: after three weeks; for Wheat, % damage: rated after three weeks vs untreated control
Protocol: as §1

Xanthium = experiment: Post-emergence test/greenhouse; type: in vivo; details: for % damage, Xanthium: after three weeks; for Xanthium, % damage: rated after three weeks vs untreated control
Protocol: as §1

weeds [6] = experiment: Post-emergence test; type: in vivo; details: cf. Tables B-1 to B-4
Protocol: as §1

Alopecurus = experiment: Pre-emergence test/greenhouse; type: in vivo; details: after three weeks
Protocol: (§2) Pre-emergence Test Solvent: 5 parts by weight of acetone Emulsifier: 1 part by weight of alkylaryl polyglycol ether To produce a suitable preparation of active compound, 1 part by weight of active compound is mixed with the stated amount of solvent, the stated amount of emulsifier is added and the concentrate is diluted with water to the desired concentration. Seeds of the test plants are sown in normal soil. After about 24 hours, the soil is sprayed with the preparation of the active compound in such a way as to apply the particular amounts of active compound desired per unit area The concentration of the spray liquor is chosen so that the particular amounts of active compound desired are applied in 1000 l of water/ha. After three weeks, the degree of damage to the plants is rated in % damage in comparison to the development of the untreated control. The figures denote: [table]

Amaranthus [7] = experiment: Pre-emergence test/greenhouse; type: in vivo; details: after three weeks
Protocol: as §2

Chenopodium = experiment: Pre-emergence test/greenhouse; type: in vivo; details: after three weeks
Protocol: as §2

Lolium = experiment: Pre-emergence test/greenhouse; type: in vivo; details: after three weeks
Protocol: as §2

Maize = experiment: Pre-emergence test/greenhouse; type: in vivo; details: 125 g ai./ha, after three weeks
Protocol: as §2

Matricaria [8] = experiment: Pre-emergence test/greenhouse; type: in vivo; details: 125 g ai./ha, after three weeks
Protocol: as §2

Solanum [9] = experiment: Pre-emergence test/greenhouse; type: in vivo; details: after three weeks
Protocol: as §2

Sorghum [10] = experiment: Pre-emergence test/greenhouse; type: in vivo; details: after three weeks
Protocol: as §2

Soya beans = experiment: Pre-emergence test/greenhouse; type: in vivo; details: 125 g ai./ha, after three weeks
Protocol: as §2

weeds [11] = experiment: Pre-emergence test; type: in vivo; details: cf. Tables A-1 to A-5
Protocol: as §2

Ipomoea = experiment: Post-emergence test/greenhouse; type: in vivo; details: 60 g ai./ha, rated after three weeks vs untreated control
Protocol: as §1

Sorghum [12] = experiment: Post-emergence test/greenhouse; type: in vivo; details: 60 g ai./ha, rated after three weeks vs untreated control
Protocol: as §1

Stellaria = experiment: Post-emergence test/greenhouse; type: in vivo; details: 60 g ai./ha, rated after three weeks vs untreated control
Protocol: as §1

Veronica = experiment: Pre-emergence test/greenhouse; type: in vivo; details: after three weeks
Protocol: as §2

Wheat [13] = experiment: Pre-emergence test/greenhouse; type: in vivo; details: after three weeks
Protocol: as §2

Bromus = experiment: Pre-emergence test/greenhouse; type: in vivo; details: after three weeks
Protocol: as §2

Cotton = experiment: Pre-emergence test/greenhouse; type: in vivo; details: after three weeks
Protocol: as §2

Echinochloa [14] = experiment: Pre-emergence test/greenhouse; type: in vivo; details: after three weeks
Protocol: as §2

Echinochloa [15] = experiment: Post-emergence test/greenhouse; type: in vivo; details: Table B-4, post-emergence, 60 g ai./ha, rated after three weeks vs untreated control
Protocol: as §1, with “Emulsifier:” for “Post-emergence Test Solvent: 5 parts by weight of acetone Emulsifier:”, “control.” for “control. The figures denote: [table]”

[16] = Table B-4, post-emergence, 60 g ai./ha

CSc1nn(C(=O)NS(=O)(=O)c2c(C)cccc2SCC(F)F)c(=O)n1C [Example 101]
log P [1]: (log P = 2.73)

CCSc1cccc(C)c1S(=O)(=O)NC(=O)n1nc(CC)n(C)c1=O [Example 55]
% damage, Amaranthus (Amaranthus [2]; 60 g ai./ha): 95% | % damage, Matricaria (Matricaria [3]; 60 g ai./ha): 95% | % damage, Solanum (Solanum [4]; post-emergence, 60 g ai./ha): 90% | % damage, Wheat (Wheat [5]; 60 g ai./ha): 20% | % damage, Xanthium (Xanthium; post-emergence, 60 g ai./ha): 100% | activity against weeds (weeds [6]): very strong activity

CCSc1cccc(OC(F)(F)F)c1S(=O)(=O)NC(=O)n1nc(SC)n(C)c1=O [Example 41]
% damage, Alopecurus (Alopecurus; 125 g ai./ha): 100% | % damage, Amaranthus (Amaranthus [7]; 125 g ai./ha): 100% | % damage, Chenopodium (Chenopodium; 125 g ai./ha): 100% | % damage, Lolium (Lolium; 125 g ai./ha): 80% | % damage, Maize (Maize): 10% | % damage, Matricaria (Matricaria [8]): 100% | % damage, Solanum (Solanum [9]; 125 g ai./ha): 100% | % damage, Sorghum (Sorghum [10]; 125 g ai./ha): 90% | % damage, Soya beans (Soya beans): 20% | activity against weeds (weeds [11]): very strong activity

CCSc1cccc(OC(F)(F)F)c1S(=O)(=O)NC(=O)n1nc(OC)n(C)c1=O [Example 40]
% damage, Alopecurus (Alopecurus; 125 g ai./ha): 100% | % damage, Amaranthus (Amaranthus [7]; 125 g ai./ha): 100% | % damage, Chenopodium (Chenopodium; 125 g ai./ha): 100% | % damage, Lolium (Lolium; 125 g ai./ha): 95% | % damage, Maize (Maize): 5% | % damage, Matricaria (Matricaria [8]): 100% | % damage, Solanum (Solanum [9]; 125 g ai./ha): 100% | % damage, Sorghum (Sorghum [10]; 125 g ai./ha): 100% | % damage, Soya beans (Soya beans): 20% | activity against weeds (weeds [11]): very strong activity | Ipomoea, % damage (Ipomoea): 90% | Solanum, % damage (Solanum [4]; post-emergence, 60 g ai./ha): 95% | Sorghum, % damage (Sorghum [12]; post-emergence): 80% | Stellaria, % damage (Stellaria): 95% | Wheat, % damage (Wheat [5]; 60 g ai./ha): 20% | Xanthium, % damage (Xanthium; post-emergence, 60 g ai./ha): 100% | activity against weeds (weeds [6]): very strong activity

COc1nn(C(=O)NS(=O)(=O)c2c(SCC(F)F)cccc2C(F)(F)F)c(=O)n1C [Example 99]
log P [1]: (log P = 2.59)

CCOc1nn(C(=O)NS(=O)(=O)c2c(OC(F)(F)F)cccc2SC)c(=O)n1C [Example 35]
% damage, Alopecurus (Alopecurus; 60 g ai./ha): 100% | % damage, Amaranthus (Amaranthus [7]; 60 g ai./ha): 100% | % damage, Chenopodium (Chenopodium; 60 g ai./ha): 100% | % damage, Lolium (Lolium; 60 g ai./ha): 95% | % damage, Solanum (Solanum [9]; 60 g ai./ha): 95% | % damage, Sorghum (Sorghum [10]; 60 g ai./ha): 90% | % damage, Veronica (Veronica; 60 g ai./ha): 100% | % damage, Wheat (Wheat [13]; 60 g ai./ha): 10% | activity against weeds (weeds [11]): very strong activity

CCc1nn(C(=O)NS(=O)(=O)c2c(C)cccc2SC)c(=O)n1C [Example 49]
Amaranthus, % damage (Amaranthus [2]; 60 g ai./ha): 95% | Ipomoea, % damage (Ipomoea): 90% | Solanum, % damage (Solanum [4]; [16]): 90% | Solanum, % damage (Solanum [4]; post-emergence, 60 g ai./ha): 90% | Sorghum, % damage (Sorghum [12]; Table B-4, post-emergence): 90% | Sorghum, % damage (Sorghum [12]; post-emergence): 90% | Stellaria, % damage (Stellaria): 70% | Wheat, % damage (Wheat [5]; 60 g ai./ha): 20% | Xanthium, % damage (Xanthium; [16]): 95% | Xanthium, % damage (Xanthium; post-emergence, 60 g ai./ha): 95% | activity against weeds (weeds [6]): very strong activity

COc1nn(C(=O)NS(=O)(=O)c2c(SCC(F)F)cccc2C(F)(F)F)c(=O)n1C1CC1 [Example 100]
log P [1]: (log P = 2.96)

CCOc1nn(C(=O)NS(=O)(=O)c2c(C)cccc2SCC)c(=O)n1C [Example 56]
% damage, Amaranthus (Amaranthus [2]; 125 g ai./ha): 100% | % damage, Matricaria (Matricaria [3]; 125 g ai./ha): 100% | % damage, Solanum (Solanum [4]; post-emergence, 125 g ai./ha): 100% | % damage, Wheat (Wheat [5]; 125 g ai./ha): 10% | % damage, Xanthium (Xanthium; post-emergence, 125 g ai./ha): 100% | activity against weeds (weeds [6]): very strong activity

CCOc1nn(C(=O)NS(=O)(=O)c2c(OC(F)(F)F)cccc2SC(C)C)c(=O)n1C [Example 25]
% damage, Alopecurus (Alopecurus; 125 g ai./ha): 100% | % damage, Amaranthus (Amaranthus [7]; 125 g ai./ha): 95% | % damage, Chenopodium (Chenopodium; 125 g ai./ha): 100% | % damage, Lolium (Lolium; 125 g ai./ha): 70% | % damage, Maize (Maize): 0% | % damage, Matricaria (Matricaria [8]): 95% | % damage, Solanum (Solanum [9]; 125 g ai./ha): 100% | % damage, Sorghum (Sorghum [10]; 125 g ai./ha): 80% | % damage, Soya beans (Soya beans): 20% | activity against weeds (weeds [11]): very strong activity

CCOc1nn(C(=O)NS(=O)(=O)c2c(SC(C)(C)C)cccc2C(F)(F)F)c(=O)n1C [Example 60]
% damage, Alopecurus (Alopecurus; 125 g ai./ha): 90% | % damage, Amaranthus (Amaranthus [7]; 125 g ai./ha): 100% | % damage, Bromus (Bromus; 125 g ai./ha): 95% | % damage, Chenopodium (Chenopodium; 125 g ai./ha): 100% | % damage, Cotton (Cotton; 125 g ai./ha): 20% | % damage, Echinochloa (Echinochloa [14]; 125 g ai./ha): 100% | % damage, Veronica (Veronica; 125 g ai./ha): 100% | % damage, Wheat (Wheat [13]; 125 g ai./ha): 0% | activity against weeds (weeds [11]): very strong activity

CSc1cccc(SC)c1S(=O)(=O)NC(=O)n1nc(SC)n(C)c1=O [Example 51]
% damage, Amaranthus (Amaranthus [2]; 125 g ai./ha): 95% | % damage, Matricaria (Matricaria [3]; 125 g ai./ha): 95% | % damage, Solanum (Solanum [4]; post-emergence, 125 g ai./ha): 95% | % damage, Wheat (Wheat [5]; 125 g ai./ha): 20% | % damage, Xanthium (Xanthium; post-emergence, 125 g ai./ha): 95% | activity against weeds (weeds [6]): very strong activity

COc1nn(C(=O)NS(=O)(=O)c2c(SC)cccc2C(F)(F)F)c(=O)n1C [Example 61]
% damage, Alopecurus (Alopecurus; 60 g ai./ha): 95% | % damage, Amaranthus (Amaranthus [7]; 60 g ai./ha): 100% | % damage, Bromus (Bromus; 60 g ai./ha): 100% | % damage, Chenopodium (Chenopodium; 60 g ai./ha): 100% | % damage, Cotton (Cotton; 60 g ai./ha): 0% | % damage, Echinochloa (Echinochloa [14]; 60 g ai./ha): 100% | % damage, Veronica (Veronica; 60 g ai./ha): 80% | % damage, Wheat (Wheat [13]; 60 g ai./ha): 30% | activity against weeds (weeds [11]): very strong activity

CCOc1nn(C(=O)NS(=O)(=O)c2c(OC)cccc2SCCF)c(=O)n1C [Example 59]
% damage, Alopecurus (Alopecurus; 125 g ai./ha): 100% | % damage, Amaranthus (Amaranthus [7]; 125 g ai./ha): 100% | % damage, Chenopodium (Chenopodium; 125 g ai./ha): 100% | % damage, Lolium (Lolium; 125 g ai./ha): 100% | % damage, Matricaria (Matricaria [8]): 100% | % damage, Solanum (Solanum [9]; 125 g ai./ha): 100% | % damage, Sorghum (Sorghum [10]; 125 g ai./ha): 100% | activity against weeds (weeds [11]): very strong activity | Amaranthus, % damage (Amaranthus [2]; 60 g ai./ha): 100% | Solanum, % damage (Solanum [4]; [16]): 90% | Sorghum, % damage (Sorghum [12]; Table B-4, post-emergence): 100% | Xanthium, % damage (Xanthium; [16]): 95% | activity against weeds (weeds [6]): very strong activity | Echinochloa, % damage (Echinochloa [15]): 100%

COc1nn(C(=O)NS(=O)(=O)c2c(SC)cccc2SC)c(=O)n1C [Example 50]
Amaranthus, % damage (Amaranthus [2]; 60 g ai./ha): 95% | Solanum, % damage (Solanum [4]; [16]): 95% | Sorghum, % damage (Sorghum [12]; Table B-4, post-emergence): 95% | Xanthium, % damage (Xanthium; [16]): 95% | activity against weeds (weeds [6]): very strong activity | Echinochloa, % damage (Echinochloa [15]): 80%
